Measured values from ChEMBL document CHEMBL3351285, “Synthesis of chlorinated flavonoids with anti-inflammatory and pro-apoptotic activities in human neutrophils” (Eur J Med Chem, 2014).

Columns and labels:
Neutrophil [1] = experiment: Induction of apoptosis in human neutrophils assessed as early apoptotic cells at 50 uM after 4 hrs by Annexin-V-FLUOS staining based flow cytometry (reference value: 9.7%); assay type: functional
Neutrophil [2] = experiment: Induction of apoptosis in human neutrophils assessed as viable cells at 50 uM after 4 hrs by Annexin-V-FLUOS staining based flow cytometry (reference value: 89.8%); assay type: functional; conditions: read-out: Activity
Neutrophil [3] = experiment: Inhibition of PMA-induced oxidative burst in human neutrophils by chemiluminescence assay; assay type: functional, cell-based
Neutrophil [4] = experiment: Inhibition of PMA-induced oxidative burst in human neutrophils by amplex red assay; assay type: functional, cell-based
Neutrophil [5] = experiment: Inhibition of PMA-induced oxidative burst in human neutrophils by APF assay; assay type: functional, cell-based
Neutrophil [6] = experiment: Induction of apoptosis in human neutrophils assessed as necrotic cells at 50 uM after 4 hrs by Annexin-V-FLUOS staining based flow cytometry (reference value: 0.1%); assay type: functional
[7] = Cytotoxicity against human neutrophils assessed as cell viability at 50 uM after 4 hrs by trypan blue assay; assay type: cell-based, Neutrophil; conditions: read-out: Activity
Neutrophil [8] = experiment: Induction of apoptosis in human neutrophils assessed as late apoptotic cells at 50 uM after 4 hrs by Annexin-V-FLUOS staining based flow cytometry (reference value: 0.5%); assay type: functional
Neutrophil [9] = experiment: Induction of apoptosis in human neutrophils assessed as late apoptotic cells at 50 uM after 4 hrs by Annexin-V-FLUOS staining based flow cytometry in presence of Z-DEVD-FMK caspase 3 (reference value: 0.8%); assay type: functional
Neutrophil [10] = experiment: Induction of apoptosis in human neutrophils assessed as necrotic cells at 50 uM after 4 hrs by Annexin-V-FLUOS staining based flow cytometry in presence of Z-DEVD-FMK caspase 3 (reference value: 0.0%); assay type: functional
Neutrophil [11] = experiment: Induction of apoptosis in human neutrophils assessed as early apoptotic cells at 50 uM after 4 hrs by Annexin-V-FLUOS staining based flow cytometry in presence of Z-DEVD-FMK caspase 3 (reference value: 10.1%); assay type: functional
Neutrophil [12] = experiment: Induction of apoptosis in human neutrophils assessed as viable cells at 50 uM after 4 hrs by Annexin-V-FLUOS staining based flow cytometry in presence of Z-DEVD-FMK caspase 3 (reference value: 89.0%); assay type: functional; conditions: read-out: Activity
Neutrophil [13] = experiment: Inhibition of PMA-induced oxidative burst in human neutrophils at 50 uM by amplex red assay; assay type: functional
Neutrophil [14] = experiment: Inhibition of PMA-induced oxidative burst in human neutrophils at 50 uM by APF assay; assay type: functional
Neutrophil [15] = experiment: Inhibition of PMA-induced oxidative burst in human neutrophils at 50 uM by chemiluminescence assay; assay type: functional

Structure (SMILES) | Activity (Neutrophil [1]) [%] | viability at 50 µM (Neutrophil [2]) [%] | IC50 (Neutrophil [3]) [µM] | IC50 (Neutrophil [4]) [nM] | IC50 (Neutrophil [5]) [nM] | Activity (Neutrophil [6]) [%] | viability at 4 h, 50 µM [7] [%] | Activity (Neutrophil [8]) [%] | Activity (Neutrophil [9]) [%] | Activity (Neutrophil [10]) [%] | Activity (Neutrophil [11]) [%] | viability at 50 µM (Neutrophil [12]) [%] | inhibition at 50 µM (Neutrophil [13]) [%] | inhibition at 50 µM (Neutrophil [14]) [%] | inhibition at 50 µM (Neutrophil [15]) [%]
O=c1cc(-c2ccc(O)c(O)c2)oc2c(Cl)c(O)c(Cl)c(O)c12 | 15.3 | 83.7 | 3.4 | 6200 | 7200 | 0.1 | 98 | 0.9 | – | – | – | – | – | – | –
O=c1c(Cl)c(-c2ccc(O)c(O)c2)oc2cc(O)cc(O)c12 | – | – | 2 | 1400 | 400 | – | 98 | – | – | – | – | – | – | – | –
O=c1cc(-c2ccc(O)c(O)c2)oc2c(Cl)c(O)cc(O)c12 | 25.3 | 74.1 | 2.6 | 1600 | 2600 | 0 | 98 | 0.5 | 1 | 0 | 9.6 | 89.4 | – | – | –
O=c1cc(-c2ccccc2)oc2ccccc12 [FLAVONE] | – | – | – | – | – | – | 98 | – | – | – | – | – | < 40 | < 40 | < 40
O=c1c(O)c(-c2ccc(O)c(O)c2)oc2cc(O)cc(O)c12 [QUERCETIN] | 14.6 | 84.7 | 2.8 | 2700 | 1800 | 0.1 | 98 | 0.6 | – | – | – | – | – | – | –
O=c1cc(-c2ccc(O)c(O)c2)oc2cc(O)cc(O)c12 [LUTEOLIN] | 20.2 | 78.6 | 5.2 | 1700 | 2200 | 0.1 | 98 | 1.1 | – | – | – | – | – | – | –
O=c1c(Cl)c(-c2ccc(O)c(O)c2)oc2c(Cl)c(O)cc(O)c12 | – | – | 4.6 | 1700 | 1800 | – | 98 | – | – | – | – | – | – | – | –
